For one experiment, the target named is T1, AR W741L (Homo sapiens, UniProt P10275, W742L).
T1 construct: expressed in transfected cells; host or cells: CV-1
T1 sequence (P10275 1-920 W742L): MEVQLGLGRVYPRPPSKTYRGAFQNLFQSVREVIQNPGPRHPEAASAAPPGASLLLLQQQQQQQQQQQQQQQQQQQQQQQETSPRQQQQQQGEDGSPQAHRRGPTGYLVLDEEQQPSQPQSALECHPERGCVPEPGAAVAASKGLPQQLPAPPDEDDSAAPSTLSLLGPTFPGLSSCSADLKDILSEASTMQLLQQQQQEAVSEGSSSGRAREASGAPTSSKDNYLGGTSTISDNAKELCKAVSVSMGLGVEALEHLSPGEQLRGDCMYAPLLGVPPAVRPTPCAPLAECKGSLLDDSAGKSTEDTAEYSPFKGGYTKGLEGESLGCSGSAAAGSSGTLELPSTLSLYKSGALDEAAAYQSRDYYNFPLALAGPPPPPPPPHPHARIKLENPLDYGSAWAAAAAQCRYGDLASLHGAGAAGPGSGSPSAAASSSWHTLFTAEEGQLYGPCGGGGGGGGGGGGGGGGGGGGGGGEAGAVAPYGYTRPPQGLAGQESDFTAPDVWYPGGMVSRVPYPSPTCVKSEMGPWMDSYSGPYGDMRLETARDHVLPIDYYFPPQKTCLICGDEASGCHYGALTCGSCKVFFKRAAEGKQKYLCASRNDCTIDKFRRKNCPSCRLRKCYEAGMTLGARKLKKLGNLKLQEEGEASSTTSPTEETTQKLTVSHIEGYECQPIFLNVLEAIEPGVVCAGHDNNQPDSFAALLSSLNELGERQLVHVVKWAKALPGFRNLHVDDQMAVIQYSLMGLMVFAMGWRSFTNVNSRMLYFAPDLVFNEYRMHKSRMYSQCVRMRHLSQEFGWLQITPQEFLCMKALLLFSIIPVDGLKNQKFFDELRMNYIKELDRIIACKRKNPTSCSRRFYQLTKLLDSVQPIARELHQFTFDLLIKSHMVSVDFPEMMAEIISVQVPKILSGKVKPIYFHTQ
Kind of experiment: Transcription assay (ARE-luciferase reporter) in CV-1 cells, AR W741L. The settings on record: for Antagonist efficacy (RLU value at IC50), AR W741L: in competition with 250 nM DHT. The class given is cell-based. On the procedure: (§1) Twenty-four hours prior to transfection, CV-1 cells were seeded at a density of 45,000 cells per well in 24-well cell culture plates and grown in phenol red free Dulbecco's Modified Eagle Medium (DMEM) supplemented with 10% cosmic calf serum (COS). ARE-luciferase reporter and Renilla-Luc as the internal standard and a prokaryotic expression vector encoding the wild-type androgen receptor or mutant androgen receptor were transfected with Lipofectamine (Invitrogen) following manufacturer's protocol. Five hours after transfection, media was added containing the appropriate concentrations of ligands. The cells were allowed to incubate for 38 hours before harvesting by passive lysis buffer. Cell extracts were immediately assayed using the Dual Luciferase Assay (Promega) with a Perkin-Elmer Microbeta Luminometer. […] Dose-response data was analyzed by nonlinear regression analysis using GraphPad Prism.

Experiment [1] deals with T2, AR wt (Homo sapiens, UniProt P10275).
T2 sequence (P10275 1-920): T1 sequence (P10275 1-920 W742L) with L742W
Briefly: Transcription assay (ARE-luciferase reporter) in CV-1 cells, wild-type AR. The class given is cell-based. Also on record: expressed in transfected cells; host or cells: CV-1. The note with it: for Antagonist efficacy (RLU value at IC50), AR wt: in competition with 3 nM DHT, normalized to 10 nM DHT in hAR(wt). On the procedure: as §1
Background: In a reporter assay the amount or activity of a reporter protein is the signal.

Experiment [2] has as its target T2, AR wt. Kind of experiment: Competitive binding assay, [3H]DHT, transfected COS-7 cells, wild-type AR. The settings on record: 8 nM [3H]-DHT, read-out: Binding affinity (Ki), AR wt. Details: expressed in transfected cells; host or cells: COS-7. On the procedure: Twenty-four hours prior to transfection, COS-7 cells were seeded at a density of 70,000 cells per well in 24-well cell culture plates and grown in phenol red free Dulbecco's Modified Eagle Medium (DMEM) supplement with 10% cosmic calf serum (CCS). The cells were transfected with a prokaryotic expression vector encoding the wild-type androgen receptor or mutant androgen receptor using Lipofectamine (Invitrogen) following manufacturer's protocol. […] Cells were washed with PBS and harvested in 2% SDS, 10% glycerol, and 10 mM Tris, pH 6.8, and radioactivity determined by scintillation counting.

As usually defined, the IC50 is the concentration needed to halve the response being measured. A low value points to greater potency. One may read the Ki as the equilibrium dissociation constant of an inhibitor or competing ligand from its target.

Substitutions are numbered along the chain they refer to.

As for `CN(C)CCCOc1cccc(Cc2ccccc2S(=O)(=O)CC(C)(O)C(=O)Nc2ccc(C#N)c(C(F)(F)F)c2)c1` (stereo not shown) [PAN22], at AR W741L, it took 3 ± 1.8 µM to reach half-maximal inhibition (IC50) and the “Antagonist efficacy (RLU value at IC50), AR W741L” value (from here on “Antagonist efficacy … AR W741L”) is “(52% ± 4.9%)”. Also, at AR wt [1], the IC50 turned out to be 2 ± 2.2 µM and the “Antagonist efficacy (RLU value at IC50), AR wt” value (“Antagonist efficacy … AR wt” for short) is given as “(50% ± 30%)”. Moreover, the Ki on AR wt [2] stood at 2.3 µM.

Turning to `CC(O)(CS(=O)(=O)c1ccccc1-c1ccccc1O)C(=O)Nc1ccc(C#N)c(C(F)(F)F)c1` (stereo not shown) [PAN41, N-(4-cyano-3-(trifluoromethyl)phenyl)-2-hydroxy-3-(2′-hydroxybiphenyl-2-ylsulfonyl)-2-methylpropanamide], at AR W741L, the IC50 is 5.8 ± 1.6 µM and the “Antagonist efficacy … AR W741L” value was “(50% ± 1.0%)”. Moreover, at AR wt [1], the IC50 was 1.2 ± 0.5 µM and the “Antagonist efficacy … AR wt” value was “(45% ± 14%)”.

As to `CN(C)CCCOc1cccc(-c2ccccc2S(=O)(=O)CC(C)(O)C(=O)Nc2ccc(C#N)c(C(F)(F)F)c2)c1` (stereo not shown) [PAN52], on AR W741L, the IC50 worked out at 12.2 ± 6.2 µM and the “Antagonist efficacy … AR W741L” value is listed as “(53% ± 5.2%)”. For the same compound, at AR wt [1], the IC50 stood at 3.5 ± 2 µM and the “Antagonist efficacy … AR wt” value is “(49% ± 4.4%)”. For the same compound, at AR wt [2], the Ki is 3 µM.

As for `CN(C)CCCOc1ccc(-c2ccccc2S(=O)(=O)CC(C)(O)C(=O)Nc2ccc(C#N)c(C(F)(F)F)c2)cc1` (stereo not shown) [PAN62], at AR W741L, half-maximal inhibition (IC50) required 11 ± 11 µM and the “Antagonist efficacy … AR W741L” value is listed as “(62% ± 12%)”. Besides, on AR wt [1], the 50% inhibitory concentration (IC50) amounted to 2.3 ± 0.9 µM and the “Antagonist efficacy … AR wt” value is given as “(51% ± 9.1%)”. Also, at AR wt [2], the Ki was 25 µM.

Source of the values: patent US8450374B2, “Pan-antagonists for the androgen receptor and androgen receptor mutants associated with anti-androgen withdrawal” (priority 2009, dated 2013).
